Measured values reported in US20120196854A1, “PHARMACEUTICAL COMPOSITION COMPRISING AROMATIC HETEROCYCLIC COMPOUND” (Kyowa Hakko Kirin Co., Ltd., priority 2009, published 2012).

Assays:
[1] = system: antigen-induced nasal congestion in rats; test: Effect on antigen-induced nasal congestion in rats; type: in vivo, rat; conditions: 10 mg/kg orally, 1 hour before nasal antigen; OVA-sensitized BN rats
Procedure: Six-week-old male BN/CrljCrlj SPF/VAF rats were purchased from Charles River Japan (Hino, Kanagawa) and used for experiments. Equal amounts of a 0.4 mg/mL ovalbumin/saline solution (OVA: Grade III, Cat. No. A-5378, Sigma-Aldrich, St. Louis, Mo., USA) and a 20 mg/mL suspension of aluminum hydroxide (alum: Cat. No. 014-01925, Wako Pure Chemical Industries) in saline were mixed to give a sensitizing fluid. First, a suspension of inactivated killed pertussis bacteria (Cat. No. 15330-91, Nacalai Tesque, Tokyo) was doubly diluted with saline. The diluted suspension was subcutaneously administered on the back of each rat at a dose of 0.1 mL (containing 10 billion bacterial cells) per rat, and immediately after that, the sensitizing fluid was intraperitoneally administered at a dose of 1 mL per rat. […]
The nasal congestion was evaluated based on the elevation of the intranasal pressure determined in the following manner. […] The pressure inside the nasal cavity was detected using a pressure transducer branched from the end of the cannula for measurement, and analyzed using Win-PULMOS-III (M.I.P.S. Inc., Osaka). The pressure inside the nasal cavity was measured for 3 minutes immediately after the connection to the cannula for measurement and the artificial ventilator, and the data was calculated for a 3-minute average.

[2] = system: PGD2 production in mouse ear; test: Inhibitory effect on PGD2 production in mouse ear caused by allergic reaction; type: in vivo; conditions: 10 mg/kg orally, 1 hour before inducing antigen-antibody reaction; BALB/c mice
Procedure: A test of PGD2 production in the mouse ear caused by allergic reaction was conducted according to the evaluation method of passive cutaneous anaphylaxis in the mouse ear by Inagaki et al. (Int.Arch.AllergyAppl. Immunol., 1988, 86 (3), 325-30) with some alteration. […]
One hour after the induction of antigen-antibody reaction, the mice were killed by cervical dislocation and the ears were cut off with scissors. […] The harvested pieces of ear tissue were immediately frozen in liquid nitrogen, and preserved at −80° C. until measurement of the quantity of PGD2.
The quantity of PGD2 was determined in the following manner. […]

O=C(O)c1cc(-c2ccco2)nc2ccc3nn(-c4ccccc4)nc3c12 [Compound 133, 7-(furan-2-yl)-2-phenyl-2H-[1,2,3]triazolo[4,5-f]quinoline-9-carboxylic acid]
inhibition of antigen-induced nasal congestion (intranasal pressure) [1]: 55%
inhibition of PGD2 production in mouse ear caused by allergic reaction [2]: 88%
